Source: patent US4698352A, “4-oxo-1,4-dihydronicotinic acid derivatives, salts thereof, and antibacterial agents containing the same” (Toyama Chemical Co., Ltd., priority 1982, dated 1987)
Values after ≈ are worked out from the molar mass of the structure shown. Like-named read-outs stand apart in the source and are kept apart here.

Columns and labels:
Assay in all cases: Antibacterial activity (MIC), agar dilution
Assay type in all cases: cell-based
Aci. antitratus A-6 = settings: 20 h
Source text: (§1) The amount of bacteria inoculated was 10^4 cells per plate (10^6 cells per ml).

E. coli NIHJ JC-2 = settings: Escherichia coli, NIHJJC2, 20 h
Source text: as §1

E. coli TK-111 = settings: Escherichia coli, TK111, 20 h, E. coli TK-111; 10^6 cells per ml; 37° C., 20 hours; read-out: MIC
Source text: as §1

Ent. cloacae IID977 = settings: Enterobacter cloacae, IID977, 20 h
Source text: as §1

Kl. pneumoniae Y-41 = settings: Klebsiella pneumoniae, Y41, 10^6 cells per ml, 37° C., 20 hours, read-out: MIC
Source text: as §1

Kl. pneumoniae Y-50 = settings: Klebsiella pneumoniae, Y50, 20 h, 10^6 cells per ml, 37° C., read-out: MIC
Source text: as §1

Pro. mirabilis T-111 = settings: Proteus mirabilis, 37° C.
Source text: as §1

Pro. morganii T-216 = settings: Morganella morganii, 37° C.
Source text: as §1

Pro. vulgaris GN3027 = settings: Proteus vulgaris, GN3027, 20 h, Pro. vulgaris GN3027; 10^6 cells per ml; 37° C., 20 hours; read-out: MIC
Source text: as §1

Ps. aeruginosa IFO3445 = settings: Pseudomonas aeruginosa
Source text: as §1

Ps. aeruginosa S-68 = settings: Pseudomonas aeruginosa
Source text: as §1

St. aureus FDA209P = settings: Staphylococcus aureus, FDA209P, 20 h
Source text: as §1

E. coli TK-3* = settings: Escherichia coli, 20 h
Source text: as §1
(§2) * Penicillinase-producing bacteria

Kl. pneumoniae Y-4* = settings: Klebsiella pneumoniae, 20 h, Kl. pneumoniae Y-4, penicillinase-producing; 10^6 cells per ml; read-out: MIC
Source text: as §1, §2

Ps. aeruginosa GN3379* = settings: Pseudomonas aeruginosa, Ps. aeruginosa GN3379, penicillinase-producing, 10^6 cells per ml
Source text: as §1, §2

St. aureus F-137* = settings: Staphylococcus aureus, 20 h
Source text: as §1, §2

E. coli GN5482** = settings: Escherichia coli, 20 h; E. coli GN5482, cephalospolinase-producing; 10^6 cells per ml; read-out: MIC
Source text: as §1
(§3) ** Cephalospolinase-producing bacteria

Pro. vulgaris GN76** = settings: Proteus vulgaris
Source text: as §1, §3

Ps. aeruginosa GN918** = settings: Pseudomonas aeruginosa, Ps. aeruginosa GN918, cephalospolinase-producing, 10^6 cells per ml
Source text: as §1, §3

[1] = Aci. antitratus A-6, 10^6 cells per ml, 37° C., 20 hours, read-out: MIC
[2] = E. coli NIHJ JC-2, 10^6 cells per ml, 37° C., 20 hours, read-out: MIC
[3] = Ent. cloacae IID977, 10^6 cells per ml, 37° C., 20 hours, read-out: MIC
[4] = Ps. aeruginosa IFO3445, 10^6 cells per ml, 37° C., 20 hours, read-out: MIC
[5] = St. aureus FDA209P, 10^6 cells per ml, 37° C., 20 hours, read-out: MIC
[6] = E. coli TK-3, penicillinase-producing, 10^6 cells per ml, read-out: MIC
[7] = St. aureus F-137, penicillinase-producing, 10^6 cells per ml, read-out: MIC
[8] = 20 h, Pro. vulgaris GN76, cephalospolinase-producing, 10^6 cells per ml, read-out: MIC
[9] = S68, Ps. aeruginosa S-68, 10^6 cells per ml, 37° C., 20 hours, read-out: MIC
[10] = T216, 10^6 cells per ml, 20 hours, read-out: MIC

Compound	MIC (Aci. antitratus A-6; [1]) [µg/mL]	MIC (E. coli NIHJ JC-2; [2]) [µg/mL]	MIC (E. coli TK-111) [µg/mL]	MIC (Ent. cloacae IID977; [3]) [µg/mL]	MIC (Kl. pneumoniae Y-41) [µg/mL]	MIC (Kl. pneumoniae Y-50) [µg/mL]	MIC (Pro. mirabilis T-111; T111, 20 h, 10^6 cells per ml) [µg/mL]	MIC (Pro. morganii T-216; T216, 20 h, 10^6 cells per ml) [µg/mL]	MIC (Pro. vulgaris GN3027) [µg/mL]	MIC (Ps. aeruginosa IFO3445; [4]) [µg/mL]	MIC (St. aureus FDA209P; [5]) [µg/mL]	MIC (E. coli TK-3*; [6]) [µg/mL]	MIC (Kl. pneumoniae Y-4*) [µg/mL]	MIC (St. aureus F-137*; [7]) [µg/mL]	MIC (E. coli GN5482**) [µg/mL]	MIC (Pro. vulgaris GN76**; [8]) [µg/mL]	MIC (Ps. aeruginosa GN918**; GN918, 20 h) [µg/mL]	MIC (Ps. aeruginosa S-68; [9]) [µg/mL]	MIC (Ps. aeruginosa GN3379*; 20 h, read-out: MIC) [µg/mL]	MIC (Ps. aeruginosa GN918**; 20 h, read-out: MIC) [µg/mL]	other results
O=C(O)c1cn(-c2ccc(O)cc2)c(-c2ccc(N3CCCC3)cc2)cc1=O	≤ 0.05	0.39 (≈ 1.04 µM)	0.2 (≈ 0.531 µM)	0.78 (≈ 2.07 µM)	1.56 (≈ 4.14 µM)	0.78 (≈ 2.07 µM)	1.56 (≈ 4.14 µM)	1.56 (≈ 4.14 µM)	0.2 (≈ 0.531 µM)	6.25 (≈ 16.6 µM)	0.2 (≈ 0.531 µM)	0.78 (≈ 2.07 µM)	3.13 (≈ 8.32 µM)	0.1 (≈ 0.266 µM)	≤ 0.05	0.78 (≈ 2.07 µM)	1.56 (≈ 4.14 µM)	–	–	–	MIC (Ps. aeruginosa S-68; S68, 20 h): 3.13 µg/mL (≈ 8.32 µM); MIC (Ps. aeruginosa GN3379*; GN3379, 20 h): 3.13 µg/mL (≈ 8.32 µM)
Cc1nc(-c2ccc(-c3cc(=O)c(C(=O)O)cn3-c3ccc(F)cc3)cc2)cs1	0.1 (≈ 0.246 µM)	1.56 (≈ 3.84 µM)	0.39 (≈ 0.96 µM)	–	6.25 (≈ 15.4 µM)	3.13 (≈ 7.7 µM)	6.25 (≈ 15.4 µM)	3.13 (≈ 7.7 µM)	1.56 (≈ 3.84 µM)	25 (≈ 61.5 µM)	0.2 (≈ 0.492 µM)	–	25 (≈ 61.5 µM)	0.2 (≈ 0.492 µM)	0.78 (≈ 1.92 µM)	–	3.13 (≈ 7.7 µM)	12.5 (≈ 30.8 µM)	25 (≈ 61.5 µM)	–	MIC (Ent. cloacae IID977): 6.25 µg/mL (≈ 15.4 µM); MIC (E. coli TK-3*): 3.13 µg/mL (≈ 7.7 µM); MIC (Pro. vulgaris GN76**; GN76, 20 h): 3.13 µg/mL (≈ 7.7 µM)
Cc1nc(-c2ccc(-c3cc(=O)c(C(=O)O)cn3-c3ccc(O)cc3C)cc2)co1	0.39 (≈ 0.969 µM)	0.1 (≈ 0.249 µM)	≤ 0.05	0.39 (≈ 0.969 µM)	1.56 (≈ 3.88 µM)	0.2 (≈ 0.497 µM)	1.56 (≈ 3.88 µM)	3.13 (≈ 7.78 µM)	0.39 (≈ 0.969 µM)	–	0.1 (≈ 0.249 µM)	0.2 (≈ 0.497 µM)	3.13 (≈ 7.78 µM)	0.1 (≈ 0.249 µM)	≤ 0.05	0.78 (≈ 1.94 µM)	–	–	6.25 (≈ 15.5 µM)	0.78 (≈ 1.94 µM)	MIC (Ps. aeruginosa IFO3445; IFO3445, 20 h): 3.13 µg/mL (≈ 7.78 µM); MIC (Ps. aeruginosa S-68; S68, 20 h): 3.13 µg/mL (≈ 7.78 µM)
O=C(O)c1cn(-c2ccc(O)cc2)c(-c2ccc3sccc3c2)cc1=O	0.1 (≈ 0.275 µM)	0.2 (≈ 0.55 µM)	≤ 0.05	0.78 (≈ 2.15 µM)	0.78 (≈ 2.15 µM)	0.2 (≈ 0.55 µM)	–	–	≤ 0.05	1.56 (≈ 4.29 µM)	–	0.39 (≈ 1.07 µM)	0.78 (≈ 2.15 µM)	0.39 (≈ 1.07 µM)	≤ 0.05	0.2 (≈ 0.55 µM)	–	3.13 (≈ 8.61 µM)	1.56 (≈ 4.29 µM)	0.39 (≈ 1.07 µM)	MIC (Pro. mirabilis T-111; T111, 10^6 cells per ml, 20 hours, read-out: MIC): 0.78 µg/mL (≈ 2.15 µM); MIC (Pro. morganii T-216; [10]): 0.39 µg/mL (≈ 1.07 µM)
Nc1ccc(-c2cc(=O)c(C(=O)O)cn2-c2ccc(F)cc2)cc1	–	0.78 (≈ 2.41 µM)	0.39 (≈ 1.2 µM)	1.56 (≈ 4.81 µM)	3.13 (≈ 9.65 µM)	0.39 (≈ 1.2 µM)	6.25 (≈ 19.3 µM)	–	0.2 (≈ 0.617 µM)	6.15 (≈ 19 µM)	–	0.78 (≈ 2.41 µM)	6.25 (≈ 19.3 µM)	–	0.2 (≈ 0.617 µM)	0.78 (≈ 2.41 µM)	3.13 (≈ 9.65 µM)	12.5 (≈ 38.5 µM)	25 (≈ 77.1 µM)	–	MIC (Aci. antitratus A-6): 3.13 µg/mL (≈ 9.65 µM); MIC (Pro. morganii T-216; [10]): 1.56 µg/mL (≈ 4.81 µM); MIC (St. aureus FDA209P): 3.13 µg/mL (≈ 9.65 µM); MIC (St. aureus F-137*): 3.13 µg/mL (≈ 9.65 µM)
O=C(O)c1cn(-c2ccc(F)cc2)c(-c2ccc(Cl)cc2)cc1=O	–	–	1.56 (≈ 4.54 µM)	6.25 (≈ 18.2 µM)	12.5 (≈ 36.4 µM)	3.13 (≈ 9.11 µM)	12.5 (≈ 36.4 µM)	–	0.39 (≈ 1.13 µM)	> 100	6.25 (≈ 18.2 µM)	6.25 (≈ 18.2 µM)	25 (≈ 72.7 µM)	6.25 (≈ 18.2 µM)	0.39 (≈ 1.13 µM)	–	–	50 (≈ 145 µM)	50 (≈ 145 µM)	100 (≈ 291 µM)	MIC (Aci. antitratus A-6): 3.13 µg/mL (≈ 9.11 µM); MIC (E. coli NIHJ JC-2): 3.13 µg/mL (≈ 9.11 µM); MIC (Pro. morganii T-216; [10]): 6.25 µg/mL (≈ 18.2 µM); MIC (Pro. vulgaris GN76**; GN76, 20 h): 3.13 µg/mL (≈ 9.11 µM)
